Experiment [1] relates to PC-12. As to the kind of experiment: Induction of neurite outgrowth in rat PC12 cells in presence of nerve growth factor at 0.1 to 10.0 uM. The class given is functional, cell-based.
Experiment [2] concerns PC-12. The experiment in a line: Induction of neurite outgrowth in rat PC12 cells in absence of nerve growth factor at 0.1 to 10.0 uM. It counts as functional, cell-based.

Activity calls are given as the source filed them. The rule behind the calls is not given here.

In the case of `CO[C@H]1O[C@@H]2C[C@@]3(C)C(C)=CCC[C@@H]3[C@@]1(CCc1ccoc1)[C@@H]2C`, the result in the experiment with PC-12 [1] and in the experiment with PC-12 [2] was inactive.

Consider `CC1=CCC[C@@H]2[C@]3(CCc4ccoc4)C(=O)O[C@H](C[C@@]12C)[C@H]3C`, for which the outcome in the experiment with PC-12 [1] and with PC-12 [2] was inactive.

For the origin of these results see ChEMBL document CHEMBL1140173, “Clerodane diterpenoids with NGF-potentiating activity from Ptychopetalum olacoides” (J Nat Prod, 2008).
